Assay results reported in ChEMBL document CHEMBL1212786 (Antimicrob Agents Chemother, 2010).
pEC50: −log10 of the molar value.

How the values were obtained:
CYP1A2 [1] = biological target: T1, CYP1A2 (Homo sapiens, UniProt P05177); assay: Induction of CYP1A2 in human hepatocytes at 2 uM after 72 hrs relative to control; format: ADME, cell-based, Hepatocyte; conditions: read-out: FC
T1 sequence (P05177 whole entry): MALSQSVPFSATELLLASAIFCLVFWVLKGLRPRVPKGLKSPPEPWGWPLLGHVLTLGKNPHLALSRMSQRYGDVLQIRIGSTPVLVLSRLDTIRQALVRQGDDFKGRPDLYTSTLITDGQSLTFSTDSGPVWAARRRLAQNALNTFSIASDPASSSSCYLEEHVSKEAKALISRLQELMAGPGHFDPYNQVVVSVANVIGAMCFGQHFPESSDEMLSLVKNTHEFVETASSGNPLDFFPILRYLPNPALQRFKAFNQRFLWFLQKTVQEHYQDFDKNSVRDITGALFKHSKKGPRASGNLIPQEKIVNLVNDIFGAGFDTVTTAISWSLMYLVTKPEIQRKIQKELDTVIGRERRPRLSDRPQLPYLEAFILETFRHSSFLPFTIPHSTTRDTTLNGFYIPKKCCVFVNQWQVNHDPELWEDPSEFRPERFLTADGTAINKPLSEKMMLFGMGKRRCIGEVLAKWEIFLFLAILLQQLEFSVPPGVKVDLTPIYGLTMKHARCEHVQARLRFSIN

CYP2B6 [2] = biological target: T2, CYP2B6 (Homo sapiens, UniProt P20813); assay: Induction of CYP2B6 in human hepatocytes at 2 uM after 72 hr relative to control; format: ADME, cell-based, Hepatocyte; conditions: read-out: FC
T2 sequence (P20813 whole entry): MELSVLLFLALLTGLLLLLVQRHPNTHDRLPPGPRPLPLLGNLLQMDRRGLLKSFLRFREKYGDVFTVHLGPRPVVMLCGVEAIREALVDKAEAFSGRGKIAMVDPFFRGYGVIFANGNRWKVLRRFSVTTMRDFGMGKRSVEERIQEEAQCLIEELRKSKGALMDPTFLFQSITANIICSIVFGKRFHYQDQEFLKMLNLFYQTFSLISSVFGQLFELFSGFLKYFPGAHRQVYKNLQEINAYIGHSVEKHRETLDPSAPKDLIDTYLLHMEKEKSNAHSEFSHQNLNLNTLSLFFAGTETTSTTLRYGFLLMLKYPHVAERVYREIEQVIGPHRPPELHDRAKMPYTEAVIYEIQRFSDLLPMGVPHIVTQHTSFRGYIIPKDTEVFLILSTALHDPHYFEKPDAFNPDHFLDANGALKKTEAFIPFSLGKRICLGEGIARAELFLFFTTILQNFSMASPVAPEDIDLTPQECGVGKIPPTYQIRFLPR

CYP3A4 [3] = biological target: T3, CYP3A4 (Homo sapiens, UniProt P08684); assay: Induction of CYP3A4 in human hepatocytes at 2 uM after 72 hrs relative to control; format: ADME, cell-based, Hepatocyte; conditions: read-out: FC
T3 sequence (P08684 whole entry): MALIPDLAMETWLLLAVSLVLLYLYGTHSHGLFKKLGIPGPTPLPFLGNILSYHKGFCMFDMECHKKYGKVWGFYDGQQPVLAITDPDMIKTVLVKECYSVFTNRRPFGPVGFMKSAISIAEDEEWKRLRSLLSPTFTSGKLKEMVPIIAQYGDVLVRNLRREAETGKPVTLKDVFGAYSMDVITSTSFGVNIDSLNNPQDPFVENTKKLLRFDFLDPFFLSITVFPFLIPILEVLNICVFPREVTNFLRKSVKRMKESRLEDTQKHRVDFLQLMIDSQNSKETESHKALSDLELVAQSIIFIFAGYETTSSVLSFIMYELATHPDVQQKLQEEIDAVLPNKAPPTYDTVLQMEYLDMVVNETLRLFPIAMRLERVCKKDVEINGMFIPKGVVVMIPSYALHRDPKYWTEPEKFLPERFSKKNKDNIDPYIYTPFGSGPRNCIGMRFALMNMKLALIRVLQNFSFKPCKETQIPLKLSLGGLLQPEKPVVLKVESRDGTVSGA

PBMC = assay: Antiinflammatory activity in human PBMC assessed as inhibition of anti-CD3/CD28 antibody-induced IL-2 production treated for 1 hr before anti-CD3/CD28 antibody challenge measured after 6 hrs by immunosuppression assay; format: functional, cell-based
Hepatitis C virus = assay: Antiviral activity against Hepatitis C virus infected in human Huh7ET cells assessed as inhibition of viral replication after 72 hrs by luciferase reporter gene assay; format: functional, organism-based, Hepacivirus hominis; conditions: Huh-7, 72 h
CYP3A4 [4] = biological target: T3, CYP3A4; assay: Induction of CYP3A4 in human hepatocytes at 1000 uM after 72 hrs relative to control; format: ADME, cell-based, Hepatocyte; conditions: read-out: FC
CYP2B6 [5] = biological target: T2, CYP2B6; assay: Induction of CYP2B6 in human hepatocytes at 1000 uM after 72 hrs relative to control; format: ADME, cell-based, Hepatocyte; conditions: read-out: FC
CYP1A2 [6] = biological target: T1, CYP1A2; assay: Induction of CYP1A2 in human hepatocytes at 1000 uM after 72 hrs relative to control; format: ADME, cell-based, Hepatocyte; conditions: read-out: FC

With `Cc1ccc2cc3c(ccc4ccccc43)c3c2c1CC3` [3-METHYLCHOLANTHRENE] the fold induction at 72 h, 2 µM (CYP1A2 [1]) was 21.2, the fold induction at 72 h, 2 µM (CYP2B6 [2]) was 1.33 and the fold induction at 72 h, 2 µM (CYP3A4 [3]) was 0.97.

Work on `C/C=C/C[C@@H](C)[C@@H](O)[C@H]1C(=O)N[C@@H](CC)C(=O)N(C)CC(=O)N(C)[C@@H](CC(C)C)C(=O)N[C@@H](C(C)C)C(=O)N(C)[C@@H](CC(C)C)C(=O)N[C@@H](C)C(=O)N[C@H](C)C(=O)N(C)[C@@H](CC(C)C)C(=O)N(C)[C@@H](CC(C)C)C(=O)N(C)[C@@H](C(C)C)C(=O)N1C` [CYCLOSPORINE] yielded a pEC50 (PBMC) of 8.51 and a CC50 (Hepatitis C virus) of 5.62 µM.

In the case of `CCC1(c2ccccc2)C(=O)NC(=O)NC1=O` [PHENOBARBITAL], the fold induction at 72 h, 1000 µM (CYP3A4 [4]) was 6.73, the fold induction at 72 h, 1000 µM (CYP2B6 [5]) was 9.1 and the fold induction at 72 h, 1000 µM (CYP1A2 [6]) was 1.67.
